Assay results: patent publication US11919965B2, “Methods of treating multiple myeloma with bispecific anti-BCMA x anti-CD3 antibodies” (Regeneron Pharmaceuticals, Inc., priority 2019, dated 2024)

Assays:
MC38/BCMA tumors [1] = experiment: Syngenic MC38/BCMA tumor model in CD3-humanized mice, combination with anti-PD-1, second experiment (Example 21); format: in vivo, mouse
Protocol: (§1) Implantation and measurement of syngenic tumors: C57BL/6 mice that express human CD3deg in place of murine CD3deg (CD3-humanized mice) were subcutaneously implanted with 1×10^6 MC38 colon carcinoma cells that have been engineered to express full-length human BCMA (MC38/BCMA).
(§2) The mice were administered these Abs twice more on days 7 and 11 for a total of three doses, and tumor growth was assessed throughout the experiment.
(§3) Calculation of syngenic tumor growth and inhibition: In order to determine tumor volume by external caliper, the greatest longitudinal diameter (length in mm) and the greatest transverse diameter (width in mm) were determined. Tumor volumes based on caliper measurements were calculated by the formula: Volume (mm^3)=(length× width^2)/2.

MC38/BCMA tumors [2] = experiment: Syngenic MC38/BCMA tumor model in CD3-humanized mice, combination with anti-PD-1 (Example 20); format: in vivo, mouse; details: for Average Tumor Size (mm3) ± SEM on Day 3 / Average Tumor Size (mm3) ± SEM on Day 7 / Average Tumor Size (mm3) ± SEM on Day 11 / Average Tumor Size (mm3) ± SEM on Day 14 / Average Tumor Size (mm3) ± SEM on Day 18 / Average Tumor Size (mm3) ± SEM on Day 21 / Average Tumor Size (mm3) ± SEM on Day 24 / Average Tumor Size (mm3) ± SEM on Day 28: doses on days 3, 7, 11
Protocol: as §1, §2, §3

monkey BCMA-MMH = experiment: SPR (Biacore 4000) binding kinetics at 25° C.; details: for 90 nM mfBCMA.mmh Bind (RU): antibody captured on anti-human Fc
Sequence of monkey BCMA-MMH (as listed by the source): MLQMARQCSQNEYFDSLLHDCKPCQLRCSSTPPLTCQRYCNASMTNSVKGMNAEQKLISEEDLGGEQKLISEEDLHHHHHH
Protocol: (§4) The CM5 Biacore sensor surface was derivatized by amine coupling with a monoclonal mouse anti-human Fc antibody (GE, #BR-1008-39) to capture purified anti-BCMA mAbs and anti-BCMA×anti-CD3 bispecific mAbs. All Biacore binding studies were performed in a buffer composed of 0.01M HEPES pH 7.4, 0.15M NaCl, 3 mM EDTA, 0.05% v/v Surfactant P20 (HBS-ET running buffer). […] Antigen samples were then injected over the anti-BCMA and anti-BCMA×anti-CD3 bispecific mAbs captured surfaces at a flow rate of 30 μL/minute. Antibody-reagent association was monitored for 5 minutes while dissociation in HBS-ET running buffer was monitored for 10 minutes. All of the binding kinetics experiments were performed at 25° C. Kinetic association (ka) and dissociation (kd) rate constants were determined by fitting the real-time sensorgrams to a 1:1 binding model using Scrubber 2.0c curve fitting software. Binding dissociation equilibrium constants (KD) and dissociative half-lives (t1/2) were calculated from the kinetic rate constants as: […]

mouse BCMA-MFC = target: T1, mouse BCMA-MFC (Mus musculus, UniProt O88472); experiment: SPR (Biacore 4000) binding kinetics at 25° C.
T1 construct: 30 nM BCMA expressed with C-terminal mFc tag (mouse BCMA-MFC)
T1 sequence (O88472 with tags, fused parts or gaps): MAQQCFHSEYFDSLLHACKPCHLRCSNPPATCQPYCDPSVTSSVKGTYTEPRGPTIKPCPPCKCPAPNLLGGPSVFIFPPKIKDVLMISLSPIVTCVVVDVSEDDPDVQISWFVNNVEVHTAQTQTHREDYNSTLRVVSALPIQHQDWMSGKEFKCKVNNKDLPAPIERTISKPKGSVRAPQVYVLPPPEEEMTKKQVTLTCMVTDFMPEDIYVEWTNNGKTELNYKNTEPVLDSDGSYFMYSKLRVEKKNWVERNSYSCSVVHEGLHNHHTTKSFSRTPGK
Protocol: as §4

monkey BCMA-MFC = experiment: SPR (Biacore 4000) binding kinetics at 25° C.
Sequence of monkey BCMA-MFC (as listed by the source): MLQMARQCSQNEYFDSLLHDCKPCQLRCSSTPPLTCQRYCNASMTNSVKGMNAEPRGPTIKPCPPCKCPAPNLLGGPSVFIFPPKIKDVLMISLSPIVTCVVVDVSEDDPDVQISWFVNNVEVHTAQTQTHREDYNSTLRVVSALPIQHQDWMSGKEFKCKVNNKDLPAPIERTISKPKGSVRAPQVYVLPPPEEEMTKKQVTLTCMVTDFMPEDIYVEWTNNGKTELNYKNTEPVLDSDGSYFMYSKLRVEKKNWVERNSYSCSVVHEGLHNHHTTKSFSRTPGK
Protocol: as §4

human BCMA-MFC = target: T2, human BCMA-MFC (Homo sapiens, UniProt Q02223); experiment: SPR (Biacore 4000) binding kinetics at 25° C.
T2 construct: extracellular domain of human BCMA expressed with C-terminal mFc tag (human BCMA-MFC)
T2 sequence (Q02223 with tags, fused parts or gaps): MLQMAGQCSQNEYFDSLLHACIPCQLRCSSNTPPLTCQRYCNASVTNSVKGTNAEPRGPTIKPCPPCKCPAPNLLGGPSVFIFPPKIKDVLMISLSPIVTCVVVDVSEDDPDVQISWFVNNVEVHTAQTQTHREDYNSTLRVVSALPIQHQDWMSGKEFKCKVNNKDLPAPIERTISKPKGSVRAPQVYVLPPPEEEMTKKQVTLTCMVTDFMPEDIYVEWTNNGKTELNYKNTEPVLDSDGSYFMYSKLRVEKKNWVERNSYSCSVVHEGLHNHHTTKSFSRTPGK
Protocol: as §4

human BCMA-MMH = target: T3, human BCMA-MMH (Homo sapiens, UniProt Q02223); experiment: SPR (Biacore 4000) binding kinetics at 25° C.
T3 construct: extracellular domain of human BCMA expressed with C-terminal myc-myc-hexahistidine tag (human BCMA-MMH)
T3 sequence (Q02223 with tags, fused parts or gaps): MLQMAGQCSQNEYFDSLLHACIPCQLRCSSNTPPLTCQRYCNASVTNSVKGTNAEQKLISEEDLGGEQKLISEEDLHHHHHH
Protocol: as §4

[3] = bispecific 0.04 mg/kg + second antibody 4 mg/kg
[4] = bispecific 0.4 mg/kg + second antibody 4 mg/kg
[5] = bispecific 0.04 mg/kg + partner antibody 4 mg/kg
[6] = bispecific 0.24 mg/kg + second antibody 4 mg/kg

Molecule: REGN5458 + Isotype: combination of REGN5458 with isotype control Ab (Clone 2A3)
- Average Tumor Size (mm3) ± SEM on Day 3 (MC38/BCMA tumors [1]; [3]): 12.41 ± 2.56 mm3
- Average Tumor Size (mm3) ± SEM on Day 3 (MC38/BCMA tumors [1]; [4]): 11.22 ± 0.68 mm3
- Average Tumor Size (mm3) ± SEM on Day 6 (MC38/BCMA tumors [1]; [3]): 38.79 ± 3.52 mm3
- Average Tumor Size (mm3) ± SEM on Day 6 (MC38/BCMA tumors [1]; [4]): 16.11 ± 1.27 mm3
- Average Tumor Size (mm3) ± SEM on Day 10 (MC38/BCMA tumors [1]; [3]): 116.32 ± 19.99 mm3
- Average Tumor Size (mm3) ± SEM on Day 10 (MC38/BCMA tumors [1]; [4]): 24.27 ± 6.74 mm3
- Average Tumor Size (mm3) ± SEM on Day 13 (MC38/BCMA tumors [1]; [3]): 319.91 ± 53.05 mm3
- Average Tumor Size (mm3) ± SEM on Day 13 (MC38/BCMA tumors [1]; [4]): 50.93 ± 20.00 mm3
- Average Tumor Size (mm3) ± SEM on Day 18 (MC38/BCMA tumors [1]; [3]): 1314.27 ± 211.22 mm3
- Average Tumor Size (mm3) ± SEM on Day 18 (MC38/BCMA tumors [1]; [4]): 248.51 ± 107.21 mm3
- Average Tumor Size (mm3) ± SEM on Day 21 (MC38/BCMA tumors [1]; [3]): 2446.35 ± 395.48 mm3
- Average Tumor Size (mm3) ± SEM on Day 21 (MC38/BCMA tumors [1]; [4]): 453.43 ± 174.75 mm3
- Average Tumor Size (mm3) ± SEM on Day 25 (MC38/BCMA tumors [1]; [3]): 2411.64 ± 451.96 mm3
- Average Tumor Size (mm3) ± SEM on Day 25 (MC38/BCMA tumors [1]; [4]): 661.70 ± 331.60 mm3
- Number of Mice Tumor-Free at End of Experiment (Day 25) (MC38/BCMA tumors [1]; [5]): 0 of 10
- Number of Mice Tumor-Free at End of Experiment (Day 25) (MC38/BCMA tumors [1]; bispecific 0.4 mg/kg + partner antibody 4 mg/kg): 2 of 10
- Average Tumor Size (mm3) ± SEM on Day 3 (MC38/BCMA tumors [2]; [3]): 15.62 ± 1.61 mm3
- Average Tumor Size (mm3) ± SEM on Day 3 (MC38/BCMA tumors [2]; [6]): 13.13 ± 3.12 mm3
- Average Tumor Size (mm3) ± SEM on Day 7 (MC38/BCMA tumors [2]; [3]): 37.98 ± 3.93 mm3
- Average Tumor Size (mm3) ± SEM on Day 7 (MC38/BCMA tumors [2]; [6]): 29.27 ± 5.00 mm3
- Average Tumor Size (mm3) ± SEM on Day 11 (MC38/BCMA tumors [2]; [3]): 112.53 ± 17.39 mm3
- Average Tumor Size (mm3) ± SEM on Day 11 (MC38/BCMA tumors [2]; [6]): 36.63 ± 14.89 mm3
- Average Tumor Size (mm3) ± SEM on Day 14 (MC38/BCMA tumors [2]; [3]): 438.16 ± 59.56 mm3
- Average Tumor Size (mm3) ± SEM on Day 14 (MC38/BCMA tumors [2]; [6]): 224.33 ± 47.04 mm3
- Average Tumor Size (mm3) ± SEM on Day 18 (MC38/BCMA tumors [2]; [3]): 1040.12 ± 61.95 mm3
- Average Tumor Size (mm3) ± SEM on Day 18 (MC38/BCMA tumors [2]; [6]): 515.15 ± 115.38 mm3
- Average Tumor Size (mm3) ± SEM on Day 21 (MC38/BCMA tumors [2]; [3]): 2133.12 ± 129.26 mm3
- Average Tumor Size (mm3) ± SEM on Day 21 (MC38/BCMA tumors [2]; [6]): 1225.47 ± 289.39 mm3
- Average Tumor Size (mm3) ± SEM on Day 24 (MC38/BCMA tumors [2]; [3]): 3648.37 ± 536.71 mm3
- Average Tumor Size (mm3) ± SEM on Day 24 (MC38/BCMA tumors [2]; [6]): 1493.26 ± 973.01 mm3
- Average Tumor Size (mm3) ± SEM on Day 28 (MC38/BCMA tumors [2]; [3]): All Animals Euthanized
- Average Tumor Size (mm3) ± SEM on Day 28 (MC38/BCMA tumors [2]; [6]): 1371.17 ± 0.00 mm3
- Number of Mice Tumor-Free at End of Experiment (Day 28) (MC38/BCMA tumors [2]; [5]): 0 of 7
- Number of Mice Tumor-Free at End of Experiment (Day 28) (MC38/BCMA tumors [2]; bispecific 0.24 mg/kg + partner antibody 4 mg/kg): 0 of 6

B1: REGN4515: anti-BCMA antibody, HCVR/LCVR SEQ ID NOs 50/58 (antibody, V domains shown)
VH: QVQLVESGGGLVKPGGSLRLSCAASGFTFSDYYISWIRQAPGKGLEWVSYISSSGSSIKYADSVKGRFTISRDNAKNSLYLQMNSLRAEDTAVYYCAREGGNYGMDVWGQGTTVTVSS
VL: DIQMTQSPSSVSASVGDRVTITCRASQGINNWLVWYQQKPGKAPKLLIYAATSLQSGVPSRFSGSGSGTDFTLTISSLQPEDFATYYCQQANSFPPTFGQGTKLEIK
- Kd (monkey BCMA-MMH): > 90 nM
- 90 nM mfBCMA.mmh Bind (RU) (monkey BCMA-MMH): 1.9 RU
- ka (mouse BCMA-MFC): 947000 M⁻¹ s⁻¹
- kd (mouse BCMA-MFC): 0.00418 s⁻¹
- ka (monkey BCMA-MFC): 2.13e+06 M⁻¹ s⁻¹
- kd (monkey BCMA-MFC): 0.00716 s⁻¹
- ka (human BCMA-MFC): 1.41e+06 M⁻¹ s⁻¹
- kd (human BCMA-MFC): 8.95e-05 s⁻¹
- ka (human BCMA-MMH): 869000 M⁻¹ s⁻¹
- kd (human BCMA-MMH): 0.00247 s⁻¹

B2: mAb16711: anti-BCMA antibody, HCVR/LCVR SEQ ID NOs 2/10 (antibody, V domains shown)
VH: QVQLVESGGGVVQPGRSLRLSCAASGFTFSTYGIHWVRQAPGKGLEWVAVILHDGSSNYYAESVKGRFIISRDNSKNTLYLQMNSLRAEDTALYYCTKRYSEAAGPNWFDPWGQGTLVTVSS
VL: DIQMTQSPSSVSASVGDRVTITCRASRGISSWLAWYQQKPGKAPKLLIHAASSLQSGVPSRFSGSGSGTDFTLTISSLQPEDFATYYCQQAISFPFTFGPGTKVDIK
- ka (mouse BCMA-MFC): 1.07e+06 M⁻¹ s⁻¹
- kd (mouse BCMA-MFC): 0.0011 s⁻¹
- Kd (monkey BCMA-MFC): > 30 nM
- ka (human BCMA-MFC): 1.85e+06 M⁻¹ s⁻¹
- kd (human BCMA-MFC): 0.00019 s⁻¹
- ka (human BCMA-MMH): 2.01e+06 M⁻¹ s⁻¹
- kd (human BCMA-MMH): 0.00347 s⁻¹

B3: REGN4514: anti-BCMA antibody, HCVR/LCVR SEQ ID NOs 34/42 (antibody, V domains shown)
VH: EVQLVESGGGLVQPGRSLRLSCAASGFTFDDYAMHWVRQAPGKGLEWVSGISWNSGNMGYADSVKGRFTISRDNAKNSLFLQMHSLRAEDTAFYYCAKVRLTAFDFWGQGTLVTVSS
VL: DIQMTQSPSSLSASVGDRVTITCRTSQSIGNYLNWFQQKPGKAPKLLIYTASSLQNGVPSRFTGSGSGTDFTLTISSLQPEDFVIYYCQQSFSTPYTFGQGTKLEIK
- Kd (monkey BCMA-MMH): > 90 nM
- 90 nM mfBCMA.mmh Bind (RU) (monkey BCMA-MMH): 1.1 RU
- ka (mouse BCMA-MFC): 397000 M⁻¹ s⁻¹
- kd (mouse BCMA-MFC): 0.000269 s⁻¹
- ka (monkey BCMA-MFC): 492000 M⁻¹ s⁻¹
- kd (monkey BCMA-MFC): 0.00724 s⁻¹
- ka (human BCMA-MFC): 1.07e+06 M⁻¹ s⁻¹
- kd (human BCMA-MFC): 4.53e-05 s⁻¹
- ka (human BCMA-MMH): 1.06e+06 M⁻¹ s⁻¹
- kd (human BCMA-MMH): 0.00285 s⁻¹
